Laboratory results published in patent US10016396B2, “Dexmedetomidine premix formulation” (Hospira, Inc., priority 2012, dated 2018).
Where a name gives a salt, the structure may show the parent alone. Read-outs that look alike come from different tables or passages of the source.

Protocol: The stability of dexmedetomidine hydrochloride to acidic, basic, oxidative and photolytic stress was examined. […] Each sample was injected in duplicate.

Cc1cccc([C@H](C)c2cnc[nH]2)c1C [dexmedetomidine hydrochloride]
degradation compared to the control sample (8 h, 13.3 μg/mL): 12.7%
Assay (Acid Sample: 5N Hydrochloric Acid, 60° C., 8 hours): 95.2%
Assay (Base Sample: 2N Sodium Hydroxide, 60° C., 4 hours): 93.8%
Assay (Control Sample, not subjected to any stress): 98.4%
Assay (Heat Sample: 60° C., 8 hours): 98.4%
Assay (Light Sample: photochemical reaction unit, 24 hours): 92.0%
Assay (Oxidation Sample: 0.3% Hydrogen Peroxide, 60° C., 8 hours): 85.7%
